Values of other authors in US8632826B2, “Cosmetic wrinkle treatment method based on a zanthoxylum bungeanum extract” (Indena S.p.A., priority 2009, dated 2014).

System: thrombosis

Q: Which “activity in the prevention of thrombosis” value does the source give for COc1ccc2c(c[n+](C)c3c4cc5c(cc4ccc23)OCO5)c1OC [chelcrythrine] here?
A: The value was “active in the prevention of thrombosis”.
